Key:
Assay in all cases: biochemical
Design in all cases: AlphaScreen histone demethylase activity assay
JMJD3A (KDM6B) = JMJD3A (KDM6B) (Homo sapiens, UniProt O15054); conditions: read-out: KDM6B pIC50 (converted)
JMJD2A (KDM4A) = target: T1, JMJD2A (KDM4A) (Homo sapiens, UniProt O75164); conditions: read-out: KDM4A pIC50 (converted)
T1 sequence (O75164 1-1064): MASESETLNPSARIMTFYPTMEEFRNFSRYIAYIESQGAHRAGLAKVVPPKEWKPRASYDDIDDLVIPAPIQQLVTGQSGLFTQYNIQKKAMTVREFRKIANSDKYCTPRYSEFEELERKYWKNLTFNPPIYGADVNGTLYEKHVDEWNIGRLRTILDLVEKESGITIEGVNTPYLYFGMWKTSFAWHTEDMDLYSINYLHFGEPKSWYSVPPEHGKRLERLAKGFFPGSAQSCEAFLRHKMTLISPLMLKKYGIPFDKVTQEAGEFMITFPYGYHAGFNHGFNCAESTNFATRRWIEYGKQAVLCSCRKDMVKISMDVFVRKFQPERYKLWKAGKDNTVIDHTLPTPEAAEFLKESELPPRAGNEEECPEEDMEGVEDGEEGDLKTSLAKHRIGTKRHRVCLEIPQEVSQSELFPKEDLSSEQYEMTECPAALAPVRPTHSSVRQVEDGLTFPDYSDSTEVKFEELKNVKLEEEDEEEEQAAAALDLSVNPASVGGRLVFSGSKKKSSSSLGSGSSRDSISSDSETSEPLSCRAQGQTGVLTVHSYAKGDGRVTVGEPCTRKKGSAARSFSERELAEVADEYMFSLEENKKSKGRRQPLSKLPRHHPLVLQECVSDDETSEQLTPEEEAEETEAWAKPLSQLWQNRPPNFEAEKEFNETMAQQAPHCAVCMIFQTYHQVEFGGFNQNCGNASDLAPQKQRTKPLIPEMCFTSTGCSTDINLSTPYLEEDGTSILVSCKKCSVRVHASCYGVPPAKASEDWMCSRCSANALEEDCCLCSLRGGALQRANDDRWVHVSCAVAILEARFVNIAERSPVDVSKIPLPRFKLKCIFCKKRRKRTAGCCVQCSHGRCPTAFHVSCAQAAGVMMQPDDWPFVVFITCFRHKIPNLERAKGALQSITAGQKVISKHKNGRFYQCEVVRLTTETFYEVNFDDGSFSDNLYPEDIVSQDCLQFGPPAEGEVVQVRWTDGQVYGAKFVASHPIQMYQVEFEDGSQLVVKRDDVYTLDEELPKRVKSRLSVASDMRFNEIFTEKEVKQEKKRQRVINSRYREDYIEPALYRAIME

JMJD2D (KDM4D) = target: T2, JMJD2D (KDM4D) (Homo sapiens, UniProt Q6B0I6)
T2 sequence (Q6B0I6 1-523): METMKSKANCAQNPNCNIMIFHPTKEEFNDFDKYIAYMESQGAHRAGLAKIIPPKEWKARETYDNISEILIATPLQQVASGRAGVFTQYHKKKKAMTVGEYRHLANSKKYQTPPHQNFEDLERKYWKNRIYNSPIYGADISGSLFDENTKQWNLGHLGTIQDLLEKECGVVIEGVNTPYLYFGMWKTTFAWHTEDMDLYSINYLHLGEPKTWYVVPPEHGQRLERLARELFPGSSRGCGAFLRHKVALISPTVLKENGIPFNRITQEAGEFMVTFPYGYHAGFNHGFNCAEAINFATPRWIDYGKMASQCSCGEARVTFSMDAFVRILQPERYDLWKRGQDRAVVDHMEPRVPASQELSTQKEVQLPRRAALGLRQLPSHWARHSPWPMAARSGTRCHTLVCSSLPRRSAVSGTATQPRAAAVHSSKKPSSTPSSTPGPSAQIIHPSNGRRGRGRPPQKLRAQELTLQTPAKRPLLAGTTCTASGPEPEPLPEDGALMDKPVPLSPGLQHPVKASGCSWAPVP

JARID1A (KDM5A) = JARID1A (KDM5A) (Homo sapiens, UniProt P29375)
Sequence of JARID1A (KDM5A) (P29375 whole entry): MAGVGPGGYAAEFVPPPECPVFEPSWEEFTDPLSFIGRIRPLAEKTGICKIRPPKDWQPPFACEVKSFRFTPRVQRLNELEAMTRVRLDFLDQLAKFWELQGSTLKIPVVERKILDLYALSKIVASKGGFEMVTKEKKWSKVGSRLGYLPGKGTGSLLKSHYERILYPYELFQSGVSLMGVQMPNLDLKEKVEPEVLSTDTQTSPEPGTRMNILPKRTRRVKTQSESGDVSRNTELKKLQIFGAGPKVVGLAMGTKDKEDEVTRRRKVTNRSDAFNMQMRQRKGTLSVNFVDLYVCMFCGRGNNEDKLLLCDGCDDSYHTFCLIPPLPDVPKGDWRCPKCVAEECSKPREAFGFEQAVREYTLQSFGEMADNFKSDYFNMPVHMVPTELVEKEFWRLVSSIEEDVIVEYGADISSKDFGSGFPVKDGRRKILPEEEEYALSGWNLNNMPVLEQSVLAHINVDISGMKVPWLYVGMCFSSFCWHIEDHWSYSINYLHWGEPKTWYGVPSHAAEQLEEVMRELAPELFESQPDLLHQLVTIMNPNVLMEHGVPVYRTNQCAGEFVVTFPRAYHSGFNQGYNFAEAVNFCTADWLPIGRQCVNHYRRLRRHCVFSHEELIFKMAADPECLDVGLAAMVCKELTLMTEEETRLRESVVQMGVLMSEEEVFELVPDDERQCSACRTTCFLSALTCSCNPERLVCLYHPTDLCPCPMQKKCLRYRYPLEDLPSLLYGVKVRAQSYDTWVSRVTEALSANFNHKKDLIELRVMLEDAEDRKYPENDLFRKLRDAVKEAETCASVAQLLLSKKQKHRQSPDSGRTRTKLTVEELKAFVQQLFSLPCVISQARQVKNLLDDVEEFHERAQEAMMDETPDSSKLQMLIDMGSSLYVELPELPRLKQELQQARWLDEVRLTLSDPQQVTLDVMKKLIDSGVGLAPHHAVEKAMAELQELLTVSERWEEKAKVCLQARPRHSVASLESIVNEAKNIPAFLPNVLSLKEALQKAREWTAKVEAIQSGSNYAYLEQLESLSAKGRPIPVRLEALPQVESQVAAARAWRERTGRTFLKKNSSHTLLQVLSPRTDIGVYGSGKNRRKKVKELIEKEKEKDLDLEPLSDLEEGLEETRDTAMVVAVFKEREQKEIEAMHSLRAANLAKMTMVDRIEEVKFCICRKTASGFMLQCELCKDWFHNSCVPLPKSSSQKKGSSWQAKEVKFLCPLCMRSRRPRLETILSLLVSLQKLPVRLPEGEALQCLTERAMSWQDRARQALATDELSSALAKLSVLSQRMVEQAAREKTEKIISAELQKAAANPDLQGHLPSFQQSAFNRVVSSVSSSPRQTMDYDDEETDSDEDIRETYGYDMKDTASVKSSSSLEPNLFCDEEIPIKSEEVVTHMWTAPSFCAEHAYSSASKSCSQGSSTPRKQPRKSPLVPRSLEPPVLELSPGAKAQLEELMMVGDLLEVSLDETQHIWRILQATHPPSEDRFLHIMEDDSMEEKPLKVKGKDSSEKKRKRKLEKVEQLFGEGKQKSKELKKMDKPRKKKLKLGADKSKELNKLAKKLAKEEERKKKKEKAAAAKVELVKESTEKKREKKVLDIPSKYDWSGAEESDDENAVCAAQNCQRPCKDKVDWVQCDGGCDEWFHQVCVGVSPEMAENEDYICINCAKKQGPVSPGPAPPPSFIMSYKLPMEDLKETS

Sequence of JMJD3A (KDM6B) (O15054 whole entry): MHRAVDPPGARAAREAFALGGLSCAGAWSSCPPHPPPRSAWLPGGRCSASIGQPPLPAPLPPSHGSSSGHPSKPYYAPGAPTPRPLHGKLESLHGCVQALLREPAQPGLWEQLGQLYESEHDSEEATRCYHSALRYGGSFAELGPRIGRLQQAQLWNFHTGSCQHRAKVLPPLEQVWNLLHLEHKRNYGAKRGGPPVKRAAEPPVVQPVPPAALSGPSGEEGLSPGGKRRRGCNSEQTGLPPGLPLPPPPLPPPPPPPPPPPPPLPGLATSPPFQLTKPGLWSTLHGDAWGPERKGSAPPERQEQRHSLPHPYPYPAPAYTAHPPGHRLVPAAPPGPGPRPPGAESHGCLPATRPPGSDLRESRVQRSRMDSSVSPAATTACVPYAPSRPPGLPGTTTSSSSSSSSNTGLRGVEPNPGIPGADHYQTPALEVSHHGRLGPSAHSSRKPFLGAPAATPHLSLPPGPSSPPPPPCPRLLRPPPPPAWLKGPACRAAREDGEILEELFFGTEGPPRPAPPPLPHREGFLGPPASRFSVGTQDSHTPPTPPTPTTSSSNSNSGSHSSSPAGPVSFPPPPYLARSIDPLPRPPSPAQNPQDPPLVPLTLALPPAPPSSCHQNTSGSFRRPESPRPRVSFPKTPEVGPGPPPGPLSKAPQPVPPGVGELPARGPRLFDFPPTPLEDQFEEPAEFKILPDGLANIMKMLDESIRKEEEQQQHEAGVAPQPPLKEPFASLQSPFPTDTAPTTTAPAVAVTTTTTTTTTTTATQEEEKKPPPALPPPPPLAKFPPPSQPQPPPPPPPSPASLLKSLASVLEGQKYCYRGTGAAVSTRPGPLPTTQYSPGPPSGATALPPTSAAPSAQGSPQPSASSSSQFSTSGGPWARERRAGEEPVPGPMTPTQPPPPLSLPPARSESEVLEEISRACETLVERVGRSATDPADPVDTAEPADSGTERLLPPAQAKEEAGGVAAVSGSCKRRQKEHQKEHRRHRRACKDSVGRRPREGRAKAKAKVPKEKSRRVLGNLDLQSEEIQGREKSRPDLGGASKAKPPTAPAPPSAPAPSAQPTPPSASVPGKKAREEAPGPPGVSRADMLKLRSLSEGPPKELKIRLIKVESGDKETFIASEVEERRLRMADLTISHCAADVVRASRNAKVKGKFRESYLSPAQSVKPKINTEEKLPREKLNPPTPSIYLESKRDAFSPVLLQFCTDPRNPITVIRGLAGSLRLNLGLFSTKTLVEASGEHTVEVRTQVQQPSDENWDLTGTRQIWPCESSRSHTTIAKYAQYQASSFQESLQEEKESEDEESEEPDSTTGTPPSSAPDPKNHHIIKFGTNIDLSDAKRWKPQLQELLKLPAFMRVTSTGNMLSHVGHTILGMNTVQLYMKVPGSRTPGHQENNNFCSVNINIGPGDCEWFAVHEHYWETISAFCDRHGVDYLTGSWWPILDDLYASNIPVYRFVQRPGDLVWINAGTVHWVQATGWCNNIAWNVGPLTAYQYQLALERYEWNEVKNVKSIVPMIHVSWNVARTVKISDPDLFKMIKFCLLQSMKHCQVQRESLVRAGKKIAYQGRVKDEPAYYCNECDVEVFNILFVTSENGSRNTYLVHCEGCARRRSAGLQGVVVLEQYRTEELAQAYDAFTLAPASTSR

CC(=O)N1c2ccccc2[C@@](C#N)(c2ccccc2)[C@@H]1c1cncc(CCCCCCCN2CCCC2)c1 [(S,S)-6]
IC50 (JMJD3A (KDM6B)): 19.8 µM
IC50 (JMJD2A (KDM4A)): > 20 µM
inhibition at 10 µM (JMJD2D (KDM4D)): 22.6%
IC50 (JMJD2D (KDM4D); read-out: KDM4D pIC50 (converted)): > 100 µM
inhibition at 50 µM (JARID1A (KDM5A)): -20.3%
IC50 (JARID1A (KDM5A); read-out: KDM5A pIC50 (converted)): > 50.1 µM
